# In patent US10202361B2, “Pyridazinones as herbicides” (E I DU PONT DE NEMOURS AND COMPANY, priority 2014, dated 2019):
# Legend:
# [1] = tested on: sunflower (common oilseed sunflower, Helianthus annuus); assay: Test C pre-/postemergence greenhouse herbicide test; assay type: in vivo; conditions: Preemergence
# Summary of the method: (§1)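 Greenhouse pre- and postemergence screen: compounds in a non-phytotoxic solvent mix plus surfactant were applied to soil/sand-sown seeds or to 1- to 4-leaf plants. Visual rating 13–15 d later, 0 (no effect) to 100 (complete control).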
# [2] = tested on: cocklebur (common cocklebur, Xanthium strumarium); assay: as above; assay type: in vivo
# Summary of the method: as §1
structure (smiles),measurement,setting,value
"Cc1cc(=O)n(-c2ccc(F)cc2)nc1Oc1ccnc(C(F)(F)F)c1 [Compound 14, 2-(4-fluorophenyl)-5-methyl-6-[[2-(trifluoromethyl)-4-pyridinyl]oxy]-3 (2H)-pyridazinone]",Plant response rating,[1]; 62 g ai/ha,5
same,Plant response rating,[1]; 125 g ai/ha,5
same,Plant response rating,[1]; 250 g ai/ha,10
same,Plant response rating,"[2]; Postemergence, 31 g ai/ha",35
same,Plant response rating,"[2]; Postemergence, 62 g ai/ha",40
same,Plant response rating,"[2]; Postemergence, 125 g ai/ha",40
same,Plant response rating,"[2]; Postemergence, 250 g ai/ha",85
same,Plant response rating,"[2]; Preemergence, 31 g ai/ha",0
